Results taken from patent US6716881B2, “Carbanilides used as pesticides” (Bayer Aktiengesellschaft, priority 1996, dated 2004).

Tests used:
Coniophora puteana = test: Inhibitory test with giant colonies of Basidiomycetes (Coniophora puteana); assay type: cell-based; details: after 3 or 7 days at 26° C., vs untreated control; for Inhibition of the growth of the hypha in % with Coniophora puteana at an active compound concentration of 1 ppm: 1 ppm in agar; for Inhibition of the growth of the hypha in % with Coniophora puteana at an active compound concentration of 3 ppm: 3 ppm in agar; for Inhibition of the growth of the hypha in % with Coniophora puteana at an active compound concentration of 6 ppm: 6 ppm in agar
Description: (§1) Inhibitory Test with Giant Colonies of Basidiomycetes.
(§2) To produce a suitable preparation of active compound, 0.2 parts by weight of active compound are admixed with 99.8 parts by weight of the abovementioned solvent.
(§3) An agar which has been prepared using malt extract peptone is mixed in the liquid state with the preparation of active compound at the particular desired application rate. After the agar has set, the resulting nutrient medium is incubated at 26° C. with pieces of mycelium which had been punched out of colonies of Coniophora puteana or Coriolus versicolor.
(§4) Evaluation is carried out after 3 or 7 days' storage at 26° C. by measuring the growth of the hypha and scoring the resulting inhibition in percent in comparison to the untreated control. 0% means an inhibition of growth which corresponds to that of the untreated control, while an inhibition of growth of 100% means that no growth of the hypha is observed.

Coriolus versicolor = test: Inhibitory test with giant colonies of Basidiomycetes (Coriolus versicolor); assay type: cell-based; details: after 3 or 7 days at 26° C., vs untreated control; for Inhibition of the growth of the hypha in % with Coriolus versicolor at an active compound concentration of 1 ppm: 1 ppm in agar; for Inhibition of the growth of the hypha in % with Coriolus versicolor at an active compound concentration of 3 ppm: 3 ppm in agar; for Inhibition of the growth of the hypha in % with Coriolus versicolor at an active compound concentration of 6 ppm: 6 ppm in agar
Description: as §1, §2, §3, §4

Venturia inaequalis = test: Venturia test (apple)/protective (Example B, spray liquor concentration); assay type: in vivo; details: protective, 100 ppm in spray liquor, evaluation 12 days after inoculation
Description: Venturia Test (Apple)/Protective
To produce a suitable preparation of active compound, 1 part by weight of active compound is mixed with the stated amounts of solvent and emulsifier, and the concentrate is diluted with water to the desired concentration.
To test for protective activity, young plants are sprayed with the preparation of active compound until dew-moist. After the spray-coating has dried on, the plants are inoculated with an aqueous conidia suspension of the causative organism of apple scab Venturia inaequalis and then remain in an incubation cabin at 20° C. and 100% relative atmospheric humidity for 1 day.
The plants are then placed in a greenhouse at 23° C. and a relative atmospheric humidity of approximately 70%.
Evaluation is carried out 12 days after the inoculation. 0% means an efficacy which corresponds to that of the untreated control, while an efficacy of 100% means that no infection is observed.

Compound	Inhibition of the growth of the hypha in % with Coniophora puteana at an active compound concentration of 1 ppm (Coniophora puteana)	Inhibition of the growth of the hypha in % with Coniophora puteana at an active compound concentration of 3 ppm (Coniophora puteana)	Inhibition of the growth of the hypha in % with Coniophora puteana at an active compound concentration of 6 ppm (Coniophora puteana)	Inhibition of the growth of the hypha in % with Coriolus versicolor at an active compound concentration of 1 ppm (Coriolus versicolor)	Inhibition of the growth of the hypha in % with Coriolus versicolor at an active compound concentration of 3 ppm (Coriolus versicolor)	Inhibition of the growth of the hypha in % with Coriolus versicolor at an active compound concentration of 6 ppm (Coriolus versicolor)	Efficacy in % at an active compound concentration in the spray liquor of 100 ppm (Venturia inaequalis)
CC1=C(C(=O)Nc2ccccc2COc2ccc(C)cc2)SCCO1 [Example 143]	80%	90%	100%	100%	100%	100%	–
Cc1ccc(OCc2ccccc2NC(=O)c2cn(C)nc2C(F)F)c(C)c1 [drawing 526]	–	–	–	–	–	–	95%
CC1=C(C(=O)Nc2ccccc2COc2ccccc2C)SCCO1 [Example 144]	70%	90%	100%	90%	100%	100%	–
Cc1cccc(OCc2ccccc2NC(=O)c2cn(C)nc2C(F)F)c1 [Example 139]	100%	100%	100%	100%	100%	100%	–
Cc1nc(C(F)(F)F)c(C(=O)Nc2ccccc2CSc2ccccc2)s1 [Example 40]	50%	60%	70%	40%	70%	90%	–
Cc1ccc(OCc2ccccc2NC(=O)c2cn(C)nc2C(F)(F)F)c(C)c1 [Example 52]	80%	90%	100%	90%	100%	100%	–
CC1=C(C(=O)Nc2ccccc2COc2cccc(C)c2)SCCO1 [Example 142]	70%	90%	100%	90%	90%	100%	–
Cc1nc(C(F)(F)F)c(C(=O)Nc2ccccc2CSc2ccc(Cl)cc2)s1 [Example 85]	70%	80%	80%	70%	70%	90%	–
Cc1ccc(SCc2ccccc2NC(=O)c2c(C)nn(C)c2Cl)cc1 [Example 45]	70%	80%	90%	90%	100%	100%	–
